{"source": "ChEMBL document CHEMBL1127143", "about": "“New -lactam homologs of penems” (1993)", "key": {"[1]": {"tested_on": "Staphylococcus aureus", "test": "Minimum inhibitory concentration for the antibacterial activity against Staphylococcus aureus", "type": "functional"}, "[2]": {"tested_on": "actinomadura species", "test": "Compound was tested for percent inhibition of D,D - Carboxypeptidase from Actinomadura sp. R39 at 100 uM concentration"}}}
{"compound": "CCSC1=C(C(=O)O)N2C(=O)C(NC(=O)Cc3ccccc3)CC2S1", "note": "(configuration not stated)", "values": [{"measurement": "MIC", "setting": "[1]", "value": 320, "unit": "µg/mL"}, {"measurement": "inhibition", "setting": "[2]", "value": 15, "unit": "%"}]}
